Here are results for 5 compounds from article PMC8151276, “An Integrated Approach toward NanoBRET Tracers for Analysis of GPCR Ligand Engagement” (Molecules, 2021).

For one assay, the target named is T1, DRD4 (Homo sapiens, UniProt P21917).
T1 construct: purchased Promega (in-house HiBiT-GPCR construct library, NanoBRET)
T1 sequence (P21917 1-419): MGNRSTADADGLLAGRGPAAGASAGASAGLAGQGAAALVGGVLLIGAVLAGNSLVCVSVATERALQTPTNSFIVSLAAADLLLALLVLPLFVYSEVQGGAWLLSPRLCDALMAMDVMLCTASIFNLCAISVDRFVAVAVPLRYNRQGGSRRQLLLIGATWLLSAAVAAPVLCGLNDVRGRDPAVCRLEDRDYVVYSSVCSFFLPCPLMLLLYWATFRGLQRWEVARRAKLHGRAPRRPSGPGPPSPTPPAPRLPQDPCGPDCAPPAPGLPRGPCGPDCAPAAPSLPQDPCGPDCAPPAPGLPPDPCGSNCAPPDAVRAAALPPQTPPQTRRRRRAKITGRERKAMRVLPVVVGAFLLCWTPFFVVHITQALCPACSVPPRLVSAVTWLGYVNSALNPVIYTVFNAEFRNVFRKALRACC
The experiment in a line: NanoBRET screen HiBiT-DRD4 in HEK293. In kind it is binding. How it is done:
(§1) Each tracer candidate was screened across the entire library of HiBiT-GPCR constructs using NanoBRET as the detection modality. As depicted in Figure 4A, the specificity of interactions was evaluated through decrease in BRET due to competitive displacement of a bound tracer by excess parental compound. Each tracer was analyzed for binding to each HiBiT-GPCR fusion in the absence and in the presence of competing parental compound. Briefly, HEK293 cells were transfected with HiBiT-GPCR constructs diluted into promoterless DNA to reduce expression and maximize translocation to the cell surface. Each tracer candidate was then screened at concentrations of 1 μM and 0.1 μM across cells expressing these fusions. Cells were treated for 1.5 h with tracer either alone or in the presence of 20 μM competing parental compound (i.e., control). BRET was measured upon addition of purified LgBiT and subsequent complementation with HiBiT genetically fused to a GPCR. The specificity of interactions was assessed through a decrease in BRET signal due to competitive displacement of the bound tracer. To further gauge the robustness of these interactions, the fold response over the control (i.e., BRETtracer/BRETcontrol) was calculated. We chose a 1.5-fold response, which translates to ≥7-fold signal over noise as the minimal threshold required to score an interaction as positive.
(§2) HiBiT-GPCR DNA constructs were diluted in 10 mM Tris pH 8 to a final concentration of 0.01 μg/μL, arrayed in 96-well plates and stored at −20 °C. For transfection, HEK293 cells were suspended in Opti-MEM (without phenol red) supplemented with 2% fetal bovine serum (Seradigm) and 100 units/mL penicillin–streptomycin (Gibco) at a final concentration of 220,000 cells/mL and dispensed into white 96-well plates at 90 μL/well. Subsequent transfections and screens were carried using an Agilent Bravo Automated Liquid Handling Platform. First, the 96-well HiBiT DNA arrays were diluted 25-fold in Opti-MEM (without serum or phenol red) to a final concentration of 0.0004 μg/μL and 20 μL of the diluted DNAs were transferred into new 96-well plates. Next, promoterless carrier DNA (1 μg/μL) was diluted 25-fold (0.04 μg/μL) and then dispensed into the diluted arrays at 20 μL/well. Following brief mixing, Viafect transfection reagent (Promega) diluted 16-fold into Opti-MEM was dispensed into the plates at 40 μL/well. After mixing by pipetting, plates were incubated for 10 min on the pipetting station deck. The DNA-transfection reagent complexes were then added to plates containing cells. To facilitate the screen, 10 μL of DNA-transfection reagent complexes were added in duplicates to the top 4 and bottom 4 rows, resulting in two identical 48-well arrays per plate. Plates with transfected cells were incubated for 18–20 h at 37 °C/5% CO2. A screen of each tracer across the entire library using two different concentrations requires duplicate plates of transfected cells. Depending on the number of tracers being screened, transfections can be scaled up using the same ratios. The next day, for each tracer, four 20× screening solutions in tracer dilution buffer (Promega) were prepared: two duplicates at final concentration of 20 μM and two duplicates at a final concentration of 2 μM. […] The four resulting solutions were diluted 4-fold in Opti-MEM without serum or phenol red to generate 5× solutions (5 µM and 0.5 µM tracer +/− 100 μM competing compound). To screen the library, a BioTek MultiFlo FX liquid dispenser was used to dispense 22.5 µL of tracer solution to the top 4 rows and 22.5 µL tracer + competing compound solution to the 4 bottom rows. Plates were briefly mixed on an orbital shaker and incubated for 1.5 h at room temperature. […] Plates were briefly mixed on an orbital shaker and incubated for 15 min to allow complementation.

In a further assay the target is T2, ADRA2A (Homo sapiens, UniProt P08913).
T2 construct: purchased Promega (in-house HiBiT-GPCR construct library, NanoBRET)
T2 sequence (P08913 1-465): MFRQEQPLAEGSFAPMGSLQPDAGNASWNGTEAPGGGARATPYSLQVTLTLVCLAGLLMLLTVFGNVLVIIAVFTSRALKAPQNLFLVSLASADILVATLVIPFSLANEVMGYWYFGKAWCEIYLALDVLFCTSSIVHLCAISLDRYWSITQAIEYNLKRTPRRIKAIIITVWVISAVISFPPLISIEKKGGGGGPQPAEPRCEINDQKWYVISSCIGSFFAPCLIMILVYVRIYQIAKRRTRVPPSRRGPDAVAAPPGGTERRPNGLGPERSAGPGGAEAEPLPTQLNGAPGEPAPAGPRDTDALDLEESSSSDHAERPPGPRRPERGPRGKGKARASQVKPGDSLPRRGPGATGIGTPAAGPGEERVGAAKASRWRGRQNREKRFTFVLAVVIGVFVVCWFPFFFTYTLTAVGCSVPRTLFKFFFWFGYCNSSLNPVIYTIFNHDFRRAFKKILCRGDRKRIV
Briefly: NanoBRET screen HiBiT-ADRA2A in HEK293. Type of assay: binding. As for the experimental part:
as §1, §2
In general terms: In BRET a luciferase serves as donor, and the signal depends on an acceptor being close.

The mark [1] stands for this setting: tracer at 0.1μM, listed as amitriptyline-b-2-NB590.

With `O=C(CCc1ccc2n1[B-](F)(F)[N+]1=C(c3ccc[nH]3)C=CC1=C2)NCCOCCOCCNC(=O)OCCOCCN1CCN(C2=Nc3ccccc3Sc3ccccc32)CC1` [Quetiapine-a-2-NB590], the “NanoBRET Fold Response” value at DRD4 (DRD4, tracer 0.1μM) was 1.05; at DRD4 (DRD4, tracer 1μM) it was 1.49; at ADRA2A (ADRA2A, tracer 0.1μM) it was 1.10; on ADRA2A (ADRA2A, tracer 1μM) it was 1.22.
The corresponding values for `Cc1cc2c(s1)Nc1ccccc1N=C2N1CCN(CCCNC(=O)CCOCCOCCOCCOCCNC(=O)CCc2ccc3n2[B-](F)(F)[N+]2=C(c4ccc[nH]4)C=CC2=C3)CC1` [Olanzapine-a-2-NB590] are 1.68, 2.27, 1.00 and 1.04.
For `CN(C)CCC=C1c2ccccc2CCc2ccc(C(=O)NCCNC(=O)CCOCCOCCOCCOCCNC(=O)CCc3ccc4n3[B-](F)(F)[N+]3=C(c5ccc[nH]5)C=CC3=C4)cc21` [Amitriptyline-b-2-NB590], the “NanoBRET Fold Response” value on DRD4 (setting [1]) was found to be 1.05; at ADRA2A (setting [1]) it was 1.11; on ADRA2A (tracer at 1μM, listed as amitriptyline-b-2-NB590), 1.00.
For the compound `O=C(CCOCCOCCOCCOCCNC(=O)CCc1ccc2n1[B-](F)(F)[N+]1=C(c3ccc[nH]3)C=CC1=C2)NCCCN1CCN(C2=Nc3cc(Cl)ccc3Nc3ccccc32)CC1` [Clozapine-a-2-NB590], the “NanoBRET Fold Response” value on DRD4 (DRD4, 0.1μM tracer) is given as 3.46; at DRD4 (DRD4, 1μM tracer), 3.88; at ADRA2A (ADRA2A, 0.1μM tracer), 1.27; on ADRA2A (ADRA2A, 1μM tracer), 1.78.
Regarding `Cc1nc2n(c(=O)c1CCN1CCC(c3noc4cc(F)ccc34)CC1)CCCC2OC(=O)NCCOCCOCCOCCOCCNC(=O)CCc1ccc2n1[B-](F)(F)[N+]1=C(c3ccc[nH]3)C=CC1=C2` (stereo not shown) [Risperidone-2-NB590], the “NanoBRET Fold Response” value was 1.55 on DRD4 (DRD4, tracer 0.1μM); 3.40 at DRD4 (DRD4, tracer 1μM); 1.29 at ADRA2A (ADRA2A, tracer 0.1μM); 2.34 on ADRA2A (ADRA2A, tracer 1μM).
